Source: PubChem BioAssay AID330 (DTP/NCI, 2004)
Inconclusive results and toxic doses are left out. Rule for the calls: active = survival T/C of 150% or more; inactive = T/C below 125% in these data.

Tested on: P388 leukemia ip, CD2F1 mice, survival T/C
Experiment: NCI In Vivo Anticancer Drug Screen. Data for tumor model P388 Leukemia (intraperitoneal) in CD2F1 (CDF1) mice
Settings: endpoint: median survival time, higher = longer survival
How it was run: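 Mice carrying the transplanted tumor received test compound or vehicle. Survival was recorded in each group, and the value is the treated-group measurement divided by that of the vehicle-treated control group.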

[1] = dose: 50.0 mg/kg/injection, schedule: Q01DX009 (ip), vehicle: saline with Tween-80
[2] = dose: 100.0 mg/kg/injection, schedule: Q01DX009 (ip), vehicle: saline with Tween-80
[3] = dose: 200.0 mg/kg/injection, schedule: Q01DX009 (ip), vehicle: saline with Tween-80

Measured: T/C

C/C=C1/CN2CCC34c5ccccc5N(C)C23C(O)CC1C4(CO)C(=O)OC (centres undefined)
inactive: dose: 13.75 mg/kg/injection, schedule: Q01DX005 (ip), vehicle: saline + Tween-80 + alcohol 106 % of control | dose: 27.5 mg/kg/injection, schedule: Q01DX005 (ip), vehicle: saline + Tween-80 + alcohol 102 % of control | dose: 55.0 mg/kg/injection, schedule: Q01DX005 (ip), vehicle: saline + Tween-80 + alcohol 110 % of control | dose: 110.0 mg/kg/injection, schedule: Q01DX005 (ip), vehicle: saline + Tween-80 + alcohol 100 % of control

CC([OH2+])CNCCN.CC([OH2+])CNCCN.[Ni+2].[O-][Cl+3]([O-])([O-])[O-] (centres undefined)
inactive: dose: 12.5 mg/kg/injection, schedule: Q01DX009 (ip), vehicle: saline 111 % of control | dose: 25.0 mg/kg/injection, schedule: Q01DX009 (ip), vehicle: saline 100 % of control

O=C1Nc2ccccc2/C1=N/N1C(=O)CSC1=S
inactive: dose: 0.93 mg/kg/injection, schedule: Q01DX005 (ip), vehicle: Klucel (hydroxypropylcellulose) (HPC) 97 % of control | dose: 1.87 mg/kg/injection, schedule: Q01DX005 (ip), vehicle: Klucel (hydroxypropylcellulose) (HPC) 94 % of control | dose: 3.75 mg/kg/injection, schedule: Q01DX005 (ip), vehicle: Klucel (hydroxypropylcellulose) (HPC) 88 % of control

Cc1c(N(C)C)nc2cc(N(C)C)ccc2c1Cl
inactive: [1] 91 % of control | [2] 92 % of control | [3] 91 % of control

Nc1ccc(Cl)cc1C(=O)N1CCN(c2ccc([N+](=O)[O-])cn2)CC1
inactive: dose: 7.5 mg/kg/injection, schedule: Q01DX005 (ip), vehicle: Klucel (hydroxypropylcellulose) (HPC) 99 % of control | dose: 15.0 mg/kg/injection, schedule: Q01DX005 (ip), vehicle: Klucel (hydroxypropylcellulose) (HPC) 92 % of control | dose: 30.0 mg/kg/injection, schedule: Q01DX005 (ip), vehicle: Klucel (hydroxypropylcellulose) (HPC) 93 % of control

N#C/C(=C\c1ccncc1)c1ccccc1
inactive: dose: 3.13 mg/kg/injection, schedule: Q01DX009 (ip), vehicle: saline with Tween-80 90 % of control | dose: 6.25 mg/kg/injection, schedule: Q01DX009 (ip), vehicle: saline with Tween-80 95 % of control | dose: 12.5 mg/kg/injection, schedule: Q01DX009 (ip), vehicle: saline with Tween-80 92 % of control | dose: 25.0 mg/kg/injection, schedule: Q01DX009 (ip), vehicle: saline with Tween-80 109 % of control

CS/C(N)=N/NC(=O)CCC(=O)Nc1cc(Cl)c(Cl)cc1Cl
inactive: dose: 100.0 mg/kg/injection, schedule: Q04DX002 (ip), vehicle: saline with Tween-80 102 % of control | dose: 200.0 mg/kg/injection, schedule: Q04DX002 (ip), vehicle: saline with Tween-80 100 % of control | dose: 400.0 mg/kg/injection, schedule: Q04DX002 (ip), vehicle: saline with Tween-80 96 % of control

Cc1ccnc(NS(=O)(=O)c2ccc(N=Cc3c4ccccc4nc4cc(Cl)ccc34)cc2)n1
inactive: dose: 60.0 mg/kg/injection, schedule: Q01DX005 (ip), vehicle: saline with Tween-80 96 % of control | dose: 120.0 mg/kg/injection, schedule: Q01DX005 (ip), vehicle: saline with Tween-80 93 % of control | dose: 240.0 mg/kg/injection, schedule: Q01DX005 (ip), vehicle: saline with Tween-80 96 % of control

C=COC(=O)C(NC(=O)OCc1ccccc1)c1ccccc1 (centres undefined)
inactive: dose: 50.0 mg/kg/injection, schedule: Q01DX005 (ip), vehicle: saline with Tween-80 102 % of control | dose: 100.0 mg/kg/injection, schedule: Q01DX005 (ip), vehicle: saline with Tween-80 101 % of control | dose: 200.0 mg/kg/injection, schedule: Q01DX005 (ip), vehicle: saline with Tween-80 95 % of control

COc1cccc(C(=O)O)c1C(=O)O
inactive: dose: 25.0 mg/kg/injection, schedule: Q01DX009 (ip), vehicle: other 97 % of control | dose: 50.0 mg/kg/injection, schedule: Q01DX009 (ip), vehicle: other 100 % of control | dose: 100.0 mg/kg/injection, schedule: Q01DX009 (ip), vehicle: other 99 % of control | dose: 200.0 mg/kg/injection, schedule: Q01DX009 (ip), vehicle: other 106 % of control | dose: 400.0 mg/kg/injection, schedule: Q01DX009 (ip), vehicle: other 103 % of control

Cc1cnc(SC2C3CC4CC(C3)CC2C4)c(C)c1 (centres undefined)
inactive: dose: 50.0 mg/kg/injection, schedule: Q01DX009 (ip), vehicle: Klucel (hydroxypropylcellulose) (HPC) 99 % of control | dose: 100.0 mg/kg/injection, schedule: Q01DX009 (ip), vehicle: Klucel (hydroxypropylcellulose) (HPC) 94 % of control | dose: 200.0 mg/kg/injection, schedule: Q01DX009 (ip), vehicle: Klucel (hydroxypropylcellulose) (HPC) 88 % of control

CCCOC(=O)CP(=O)(O)O
inactive: [1] 101 % of control | [2] 95 % of control | [3] 87 % of control
